The nature of this data set: Human HepG2 cell viability assay in 384 well format. Particulars: HepG2 cells, read-out: Inhibition. Details: dose 125 nL, time 70.5 hour; cytotoxicity at 70.5 h: concentration not given beside the values. It counts as toxicity, cell-based.
With `COCCNC(=O)CCNc1ccc(Cl)cn1`, the cytotoxicity at 70.5 h was -6.53%.

Take `COc1ccc(CN2CCCC2)cc1Oc1ccc2c(c1)CC(CN)O2` (stereo not given): the cytotoxicity at 70.5 h was -11.3%.

For `Cc1cc(C)n(CC2CCCN2C(=O)c2nccc3ccccc23)n1` (stereo not given), the cytotoxicity at 70.5 h was -0.984%.

With `CC(=O)N(Cc1ncc(C)o1)C1CCN(Cc2csc(C)n2)C1` (stereo not given), the cytotoxicity at 70.5 h is -1.47%.

Take `CN1CCN(C(=O)c2cccs2)Cc2ccccc21`: the cytotoxicity at 70.5 h was -0.544%.

For the compound `N#CC1CCCN(S(=O)(=O)c2ccc(C(=O)NCC(F)F)cc2)C1` (stereo not given), the cytotoxicity at 70.5 h turned out to be 3.7%.

Take `CC(C)C(C)N(Cc1cnc2ccccc2n1)Cc1ccco1` (stereo not given): the cytotoxicity at 70.5 h was -8.62%.

Consider `COc1ccccc1OCC(=O)N1CCC[C@]2(C[C@@H](OC)CO2)C1`, for which the cytotoxicity at 70.5 h came to 10.6%.

Turning to `COC(=O)[C@@H]1C[C@H](NC(=O)Cn2c(=O)cc(C)c3ccccc32)CN1C`, the cytotoxicity at 70.5 h stood at 26.6%.

On to `O=C(C1CC(=O)N(c2ccccc2Br)C1)N1CCCCCC1` (stereo not given), for which the cytotoxicity at 70.5 h was 11.2%.

Regarding `CC(C)(O)CCc1cccc(C(=O)N2CCC[C@H]2CN2CCCC2)c1`, the cytotoxicity at 70.5 h amounted to 32.8%.

Consider `Cc1nc(C)n(CC2CN(CCOc3ccccc3C#N)CCO2)n1` (stereo not given), for which the cytotoxicity at 70.5 h is -8.64%.

Regarding `COCCCNC(=O)c1ccn(-c2ccc3ccccn23)n1`, the cytotoxicity at 70.5 h was -12.6%.

Turning to `c1ccc(-n2ncc(CN3CCCC(Cn4cncn4)C3)n2)cc1` (stereo not given), the cytotoxicity at 70.5 h worked out at 0.701%.

In the case of `CS(=O)(=O)N1Cc2nccn2CC(CN2CCCC2=O)C1` (stereo not given), the cytotoxicity at 70.5 h was determined as 1.5%.

Consider `CCc1nc(NCC(=O)N2CCOCC2)c2c(n1)c(C)nn2CC`, for which the cytotoxicity at 70.5 h is -9.61%.

With `O=C1NCC(c2ccc(F)cc2)Cc2[nH]c(CCN3CCCC3)nc21` (stereo not given), the cytotoxicity at 70.5 h was -20.9%.

In the case of `Cc1ccc(NCCCNc2nccc(-c3cn(C)nc3C)n2)nc1`, the cytotoxicity at 70.5 h is 13.9%.

Regarding `O=C1[C@H]2CN(c3ncccn3)C[C@H]2CN1CCN1CCCC1`, the cytotoxicity at 70.5 h was -47.2%.

On to `CC(C)CC1COCCN1C(=O)Cc1cccs1` (stereo not given), for which the cytotoxicity at 70.5 h was -4.92%.

For the compound `O=C(C1CC(=O)N(C2CC2)C1)N1CCC(Oc2ccccc2Cl)CC1` (stereo not given), the cytotoxicity at 70.5 h is 0.0694%.

`O=C(c1ccncc1)N1CCC(c2nc(O)cc(-c3ccncc3)n2)C1` (stereo not given): the cytotoxicity at 70.5 h was -12.6%.

For the compound `CCN(CC)C(CNS(=O)(=O)c1ccc(C(=O)NC)cc1)c1ccco1` (stereo not given), the cytotoxicity at 70.5 h was -8.07%.

For `CC(Cn1cccn1)NC(=O)Cc1csc(C(C)C)n1` (stereo not given), the cytotoxicity at 70.5 h was -10.5%.

Turning to `O=C(Cc1ccccn1)N1CCc2ncnc(N3CCCC3)c2CC1`, the cytotoxicity at 70.5 h is -0.341%.

As to `CC(NC(=O)NCCCN(C)S(C)(=O)=O)c1ccc(Cl)cc1` (stereo not given), the cytotoxicity at 70.5 h was -7.7%.

For `Cc1ccccc1OCCCNC(=O)C1(C)CC(=O)N2C=CC=CC2=N1` (stereo not given), the cytotoxicity at 70.5 h turned out to be 0.923%.

For `Cc1ccc(CCCC(=O)N2CCC(CS(N)(=O)=O)CC2)s1`, the cytotoxicity at 70.5 h is -18.3%.

Consider `CCNC(=O)N1CCCCC1CCO` (stereo not given), for which the cytotoxicity at 70.5 h is 12.6%.

Regarding `Cc1ccsc1CNC(=O)c1ccc(N2CCNC2=O)cc1`, the cytotoxicity at 70.5 h is -10.8%.

Consider `CCN(Cc1cccc2c1OCO2)C(=O)Nc1ccncc1`, for which the cytotoxicity at 70.5 h is 5.81%.

Regarding `CC(C)c1nc(CN(C)C(=O)c2ccc(CN3CCCCC3)cc2)cs1`, the cytotoxicity at 70.5 h was -7.38%.

As for `CCn1[nH]c(C)c2c(C(F)(F)C(F)(F)F)cc(=O)nc1-2`, the cytotoxicity at 70.5 h was -1.83%.

As to `CCCc1noc(CCCC(=O)N2CCCC2c2cnn(C)c2)n1` (stereo not given), the cytotoxicity at 70.5 h was -8.23%.

As for `COc1ccc(Nc2nc3c(C)nn(C)c3c(=O)n2C)c(OC)c1`, the cytotoxicity at 70.5 h is -18.2%.

Take `CNS(=O)(=O)CC(=O)NC(C)Cc1ccccc1Br` (stereo not given): the cytotoxicity at 70.5 h came to 3.97%.

Take `Cn1ncc2c(=O)[nH]c(CN3CCc4sccc4C3)nc21`: the cytotoxicity at 70.5 h worked out at 13.1%.

On to `Cc1cc(N2CCC(O)(C(=O)O)CC2)nc2ccccc12`, for which the cytotoxicity at 70.5 h is -11%.

Regarding `CCN(CC)S(=O)(=O)NCC(O)c1c(Cl)cccc1Cl` (stereo not given), the cytotoxicity at 70.5 h came to 8.36%.

With `CCNC(=O)CN(CC)C(=O)Cc1csc(C(C)C)n1`, the cytotoxicity at 70.5 h was -1.29%.

Turning to `CC(C)n1cnnc1CN(C)C(=O)c1cnn2ccccc12`, the cytotoxicity at 70.5 h stood at 4.09%.

Turning to `CNc1ccc(CC2CCCN(C(=O)c3cccc(C)n3)C2)nn1` (stereo not given), the cytotoxicity at 70.5 h was -0.376%.

Take `CN(Cc1ccc(F)cc1)Cc1nc(-c2cnccn2)no1`: the cytotoxicity at 70.5 h was -7.07%.

As for `Cc1cc(N2CCC(CO)(CC3CCCCO3)CC2)nc2ccccc12` (stereo not given), the cytotoxicity at 70.5 h was -9.32%.

On to `Cc1cc(O)c(OCC(=O)Nc2nccs2)cn1`, for which the cytotoxicity at 70.5 h was -21.7%.

`CCc1ccc(C2CC(=O)Nc3c2c(=O)[nH]n3C(C)C)cc1` (stereo not given): the cytotoxicity at 70.5 h turned out to be 0.136%.

Consider `CN(Cc1ccc2nsnc2c1)C(=O)CCc1cc2n(n1)CCCNC2`, for which the cytotoxicity at 70.5 h is -8.3%.

On to `CN(C)CC1(O)CCN(S(=O)(=O)c2ccc(F)cc2)C1` (stereo not given), for which the cytotoxicity at 70.5 h is 30.9%.

`CC(C)N(C)S(=O)(=O)N1CCCC1CC(=O)c1cccs1` (stereo not given): the cytotoxicity at 70.5 h is -0.315%.

`Cc1ccc(C(=O)NCCNS(C)(=O)=O)c(=O)[nH]1`: the cytotoxicity at 70.5 h was -3.54%.

Regarding `Cc1cc(C(C)(O)CNC(=O)CCn2ccnc2C(C)C)c(C)o1` (stereo not given), the cytotoxicity at 70.5 h amounted to 9.42%.

In the case of `CC(C)(C)CC(=O)NCCn1nc(C2CCNC2)c2cccnc21` (stereo not given), the cytotoxicity at 70.5 h is -6.02%.

In the case of `Cc1nc2sccn2c1CN(CCCN(C)C)Cc1ccccn1`, the cytotoxicity at 70.5 h is -8.06%.

Consider `Cn1cc(S(=O)(=O)NC(CO)Cc2c[nH]c3ccccc23)cn1` (stereo not given), for which the cytotoxicity at 70.5 h is -7.44%.

As to `CNc1nc(CNC(=O)Nc2cccc(Cl)c2Cl)cs1`, the cytotoxicity at 70.5 h was -1.34%.

Regarding `Cc1cnn(-c2ccc(S(=O)(=O)N(C)CC(C)(CO)CO)cc2F)c1`, the cytotoxicity at 70.5 h was 17.1%.

Turning to `Cc1nc(C2(NCC(=O)NC(=O)NCc3cccs3)CCCCC2)no1`, the cytotoxicity at 70.5 h is -12.5%.

Consider `Cc1cncc(C(=O)N2CC[C@@H]3[C@H]2CCC(=O)N3CCN(C)C)c1`, for which the cytotoxicity at 70.5 h was determined as 2.21%.

Regarding `CN(CC1COCCO1)c1ncnc2cc(F)ccc12` (stereo not given), the cytotoxicity at 70.5 h was found to be 19%.

Take `COCC1c2nnn(CC3CC3)c2CCN1C(=O)c1cnccn1` (stereo not given): the cytotoxicity at 70.5 h was -13%.

Regarding `CCOC(=O)CSc1nnc([C@@H](N)C(C)CC)o1` (stereo not given in full), the cytotoxicity at 70.5 h is -9.94%.

In the case of `C[S+]([O-])c1nncn1CC(=O)c1ccc(Br)cc1` (stereo not given), the cytotoxicity at 70.5 h is -5.18%.

Take `O=C1CC[C@H]2[C@H](CCN2C(=O)c2ccc[nH]2)N1CCN1CCOCC1`: the cytotoxicity at 70.5 h stood at 19.1%.

On to `CCCN(Cc1nccn1C)C(=O)c1cc(C(C)C)on1`, for which the cytotoxicity at 70.5 h is 3.45%.

For the compound `COc1cc(I)c(Cl)cc1C(=O)N(C)CC(C)(C)O`, the cytotoxicity at 70.5 h turned out to be 21%.

Regarding `Cc1cc(C)n(CNc2nonc2C(N)=O)n1`, the cytotoxicity at 70.5 h worked out at 36%.

As to `CCCOC(C)C(=O)NCc1cc2n(n1)CCCN(C1CCCCC1)C2` (stereo not given), the cytotoxicity at 70.5 h is 0.0071%.

For `CC(O)CN1CCN(Cc2csc(-c3cnn(C)c3)n2)CC1` (stereo not given), the cytotoxicity at 70.5 h was -9.86%.

Regarding `N#Cc1ccc(CN(CCF)Cc2cccc(F)c2)cc1`, the cytotoxicity at 70.5 h amounted to 6.81%.

With `O=C(c1ccc(Cl)cc1)N1CCC(N2CCCOC2=O)CC1`, the cytotoxicity at 70.5 h was -6.91%.

As to `C[C@@H]1CN(c2ccc(Cl)cn2)CC[C@@]1(O)C1CCOCC1`, the cytotoxicity at 70.5 h is -1.93%.

`COC(=O)CCNC(=O)c1ccc(NC(=O)N(C)CC(C)C)cc1`: the cytotoxicity at 70.5 h turned out to be 12.2%.

For `CCCC(=O)NCCc1cc(NC)nc(-c2ccccn2)n1`, the cytotoxicity at 70.5 h is 20.8%.

For the compound `COc1cc(Cl)c(C)cc1NC(=O)CCNc1ccc(C#N)cn1`, the cytotoxicity at 70.5 h amounted to 9.88%.

Take `CCN(CC)C(CNS(=O)(=O)NCc1ccccc1)c1ccco1` (stereo not given): the cytotoxicity at 70.5 h was -2.25%.

For `Cc1ccccc1CC1(CO)CCCN(c2ncnc3sccc23)C1` (stereo not given), the cytotoxicity at 70.5 h worked out at 31.4%.

As to `CC(C)Cc1noc(CN2CCCN(C(=O)c3ccccc3Cl)CC2)n1`, the cytotoxicity at 70.5 h was 4.22%.

On to `Cc1occc1C(=O)N1CCO[C@H]2[C@H](OCc3cccnc3)CC[C@@H]21`, for which the cytotoxicity at 70.5 h is -8.78%.

As to `COCCOc1ccc(NC(=O)N(CCCO)CC(C)(C)C)cn1`, the cytotoxicity at 70.5 h amounted to 21.2%.

On to `CC(=O)N1N=C(c2ccccc2)OC1C(=O)NCCc1cccc(F)c1` (stereo not given), for which the cytotoxicity at 70.5 h came out at 4.79%.

In the case of `CN1CC(Oc2ccccc2)=NC(SCC(=O)c2ccccc2)=N1`, the cytotoxicity at 70.5 h was -0.583%.

Turning to `O=C(c1cccnc1O)N1CCOC(Cc2cccc(C(F)(F)F)c2)C1` (stereo not given), the cytotoxicity at 70.5 h is -7%.

For `Cc1cnn(C2CN(Cc3noc(C4CC4)n3)C2)c1`, the cytotoxicity at 70.5 h is -4.77%.

Take `Cc1nn(CCO)c(C)c1CNCc1cccnc1N(C)C`: the cytotoxicity at 70.5 h is -4.11%.

For `O=C1CCc2cc(-c3csc(CCN4CCOC4=O)n3)ccc2N1`, the cytotoxicity at 70.5 h is 2.18%.

Consider `Cc1nc(COCC2CN(C(N)=O)Cc3nccn3C2)cs1` (stereo not given), for which the cytotoxicity at 70.5 h was -5.1%.

As for `CCc1nncn1CCNC(=O)N1CCN(Cc2ccccc2)CC1`, the cytotoxicity at 70.5 h is 3.82%.

Take `Nc1nc2c(c(N3CCCC(c4nnc5ccccn45)C3)n1)CCNC2` (stereo not given): the cytotoxicity at 70.5 h was -2.11%.

`CCCc1cc(=O)[nH]c2nnc(SCC(=O)OCC)n12`: the cytotoxicity at 70.5 h is -9.96%.

For `Cn1nnc2cc(C(=O)N3CCCC3Cc3ccccc3)ccc21` (stereo not given), the cytotoxicity at 70.5 h was -1.35%.

As for `CCc1n[nH]c(C2CN(CC(=O)N(C)Cc3ccco3)CCO2)n1` (stereo not given), the cytotoxicity at 70.5 h was -11.1%.

For `COc1ccc(CNC(=O)N2CCCN(CC3CCCCC3)CC2)cn1`, the cytotoxicity at 70.5 h is -5.17%.

In the case of `O=C(COc1ccc(-n2cccn2)nn1)N1CCCC1`, the cytotoxicity at 70.5 h is -2.51%.

In the case of `Cc1cc(C)c2nc(CN3CCC(C#N)CC3)cc(O)c2c1`, the cytotoxicity at 70.5 h was -1.43%.

On to `COCCC(=O)N1CCC2(COCc3cnc(N(C)C)nc32)C1` (stereo not given), for which the cytotoxicity at 70.5 h was -8.65%.

Take `Cc1cnn(CC(C)NCc2cccnc2)c1` (stereo not given): the cytotoxicity at 70.5 h was -5.07%.

As for `O=C(NCCCN1CCOCC1)c1ccn(COc2ccc(F)cc2)n1`, the cytotoxicity at 70.5 h was -6.88%.

As for `O=C(NC1CC(=O)N(C2Cc3ccccc3C2)C1)c1ccoc1` (stereo not given), the cytotoxicity at 70.5 h was -2.92%.

For the compound `Cc1cc(N2CCCC(O)(CN(C)C)CC2)nc(-c2ccccc2)n1` (stereo not given), the cytotoxicity at 70.5 h was -4.65%.

In the case of `COCCN(Cc1nc2c(cnn2C)c(=O)[nH]1)C(C)c1ccccc1` (stereo not given), the cytotoxicity at 70.5 h was -2.95%.

The record behind these values is ChEMBL document CHEMBL3507680, “University of Dundee, Gates Library screen for HepG2 cell viability”.
